From ChEMBL document CHEMBL5236634, “Membrane-Targeting Neolignan-Antimicrobial Peptide Mimic Conjugates to Combat Methicillin-Resistant Staphylococcus aureus (MRSA) Infections” (J Med Chem, 2022) come the findings set out here.

Molecules are shown by their SMILES. Calls of active or inactive are those of the source. The rule behind the calls is not given here.

For data set [1], the system named is Staphylococcus aureus. Kind of data set: Upregulation of rplJ gene expression in methicillin-resistant Staphylococcus aureus 15 assessed as log2 of fold change in gene expression at 8 ug/ml incubated for 6 hrs by transcriptome analysis. The format is functional. The following applies: dose 8 µg/ml.
Data set [2] concerns Staphylococcus aureus. Briefly: Antibacterial activity against methicillin-resistant Staphylococcus aureus 15 infected in BALB/c mouse sepsis model assessed as normalization of cell morphology in spleen at 10 mg/kg, ip measured after 48 hrs by H & E staining based analysis. The format is functional, organism-based.
Data set [3] relates to Staphylococcus aureus. Kind of data set: Antibacterial activity against methicillin-resistant Staphylococcus aureus 15 infected in BALB/c mouse sepsis model assessed as normalization of cell morphology in liver at 10 mg/kg, ip measured after 48 hrs by H & E staining based analysis. The format is functional, organism-based.
The test system of data set [4] is Cell membrane. Briefly: Disruption of membrane integrity in methicillin-resistant Staphylococcus aureus 15 assessed as increase in red fluorescence at 16 ug/ml incubated for 1 hr by DAPI/PI staining based fluorescence microscopic analysis. The format is subcellular. The following applies: dose 16.0 µg/ml.
Data set [5] deals with Cell membrane. Kind of data set: Disruption of membrane integrity in methicillin-resistant Staphylococcus aureus 15 at 32 ug/ml by SEM analysis. The format is subcellular. The conditions noted are these: dose 32.0 µg/ml.
Data set [6] can be described thus: Toxicity in BALB/c mouse assessed as effect on mean corpuscular volume at 50 mg/kg, ip administered as single dose and measured after 24 hrs. The format is organism-based. The conditions noted are these: in vivo.
The subject of data set [7] is Staphylococcus aureus. Kind of data set: Antibacterial activity against methicillin-resistant Staphylococcus aureus 15 incubated for 16 to 18 hrs in presence of phosphatidylethanolamine by checkerboard microdilution assay. The format is functional, organism-based. The conditions noted are these: time 16-18 hrs.
Data set [8] relates to Staphylococcus aureus. Kind of data set: Antibacterial activity against methicillin-resistant Staphylococcus aureus 15 infected in BALB/c mouse sepsis model assessed as reduction in bacterial load in spleen at 10 mg/kg, ip measured after 48 hrs. It is filed as functional, organism-based.
A short description of data set [9]: Toxicity in BALB/c mouse assessed as pathological changes in liver at 50 mg/kg, ip administered as single dose and measured after 24 hrs by H & E staining based analysis. The format is organism-based. The conditions noted are these: in vivo.
Data set [10] has as its system Staphylococcus aureus. Kind of data set: Upregulation of SPI gene expression in methicillin-resistant Staphylococcus aureus 15 assessed as log2 of fold change in gene expression at 8 ug/ml incubated for 6 hrs by transcriptome analysis. The following applies: dose 8 µg/ml. The format is functional.
In data set [11] the test system is Staphylococcus aureus. Kind of data set: Downregulation of pgaC gene expression in methicillin-resistant Staphylococcus aureus 15 assessed as fold change in gene expression at 8 ug/ml incubated for 6 hrs by transcriptome analysis. The format is functional. The following applies: dose 8 µg/ml.
Data set [12] has as its system Staphylococcus aureus. Briefly: Inhibition of biofilm formation in Staphylococcus aureus ATCC 29213 incubated for 24 hrs by crystalline violet staining based analysis. The conditions noted are these: dose 0.125-64 µg/ml. The format is functional, organism-based.
Data set [13] has as its system Staphylococcus aureus. Briefly: Upregulation of YidC gene expression in methicillin-resistant Staphylococcus aureus 15 assessed as log2 of fold change in gene expression at 8 ug/ml incubated for 6 hrs by transcriptome analysis. The conditions noted are these: dose 8 µg/ml. It is filed as functional.
Data set [14] concerns Staphylococcus aureus. Kind of data set: Antibacterial activity against Staphylococcus aureus ATCC 29213 assessed as inhibition of bacterial growth incubated for 16 to 20 hrs by CLSI based microdilution method. The conditions noted are these: time 16-20 hrs. It is filed as functional.
Data set [15] concerns Cell membrane. Kind of data set: Induction of cell membrane disruption in methicillin-resistant Staphylococcus aureus 15 assessed as DNA leakage at 1 to 6 times MIC incubated for 1 to 2 hrs by microspectrophotometer. It is filed as subcellular. The conditions noted are these: time 1-2 hrs.
A short description of data set [16]: Toxicity in BALB/c mouse assessed as effect on RBC count at 50 mg/kg, ip administered as single dose and measured after 24 hrs. The conditions noted are these: in vivo. It is filed as organism-based, Erythrocyte.
A short description of data set [17]: Binding affinity to methicillin-resistant Staphylococcus aureus 15 cardiolipin assessed as dissociation constant by ITC method.
Data set [18] concerns Staphylococcus aureus. Briefly: Inhibition of biofilm formation in Staphylococcus aureus ATCC 29213 assessed as destruction of formed biofilm at 0 to 128 ug/ml incubated for 24 hrs by crystal violet staining based analysis. It is filed as functional, organism-based. The following applies: dose 0-128 µg/ml.
For data set [19], the system named is Staphylococcus aureus. Kind of data set: Antibacterial activity against methicillin-resistant Staphylococcus aureus 15 infected in BALB/c mouse sepsis model assessed as normalization of cell morphology in kidney at 10 mg/kg, ip measured after 48 hrs by H & E staining based analysis. The format is functional, organism-based.
Data set [20] is described as follows: Binding affinity to methicillin-resistant Staphylococcus aureus 15 phosphatidylglycerol assessed as dissociation constant by ITC method. For orientation: In ITC the heat of successive injections is recorded.
The nature of data set [21]: Toxicity in BALB/c mouse assessed as effect on creatinine level at 50 mg/kg, ip administered as single dose and measured after 24 hrs. It is filed as organism-based. The conditions noted are these: in vivo.
Another data set deals with L02. Kind of data set: Cytotoxicity against human L02 cells assessed as effect on cell morphology at 2.5 to 80 ug/ml incubated for 24 hrs by Hoechst 33342 and propidium iodide staining based fluorescence microscopic analysis. It is filed as toxicity. The conditions noted are these: l02, 24 h, dose 2.5-80 µg/ml.
Another data set has as its system Micrococcus luteus. Kind of data set: Antibacterial activity against Micrococcus luteus assessed as inhibition of bacterial growth incubated for 16 to 20 hrs by CLSI based microdilution method. The format is functional. The conditions noted are these: time 16-20 hrs. Background: Dilution methods test growth across graded concentrations, often in twofold steps.

For `C=CCc1cccc(Oc2ccc(C(=O)CC)cc2)c1OCCC[N+](C)(C)CC(=O)NCCCCCC.[Br-]`, the log2FC is recorded as 1.8 with Staphylococcus aureus [1], 1.96 with Staphylococcus aureus [10], -2.8 in the data set on Staphylococcus aureus [11] and 1.27 in the data set on Staphylococcus aureus [13]. Also, the outcome in the data set with Staphylococcus aureus [2], in the data set with Staphylococcus aureus [3], with Cell membrane [4], with Cell membrane [5], with Staphylococcus aureus [7] and in the data set with Staphylococcus aureus [8] was Active. Besides, the outcome with Cell membrane [15] and with Staphylococcus aureus [19] was Active. Besides, the Activity result (in [6]; in data set [9]; in data set [16]; in [21]; with L02) was “Non-Toxic” each time. Also, the inhibition result in the data set on Staphylococcus aureus [12] was “Dose-Dependent Effect”. Further, the values for the MIC in the data set with Staphylococcus aureus [14] and in the data set on Micrococcus luteus were 2 µg/mL and 1 µg/mL, respectively. Besides, the figures for the Kd in [17] and in data set [20] were 1330 nM and 3430 nM, respectively. The inhibition result in the data set with Staphylococcus aureus [18] was “Active”.
`C=CCc1cccc(Oc2ccc(C(=O)CC)cc2)c1OCC[N+](C)(C)CC(=O)NCCCCCC.[Br-]`: the outcome in the data set with Staphylococcus aureus [2], with Staphylococcus aureus [3], in the data set with Cell membrane [4], with Cell membrane [5], with Staphylococcus aureus [7] and with Staphylococcus aureus [8] was Active. The outcome in the data set with Cell membrane [15] and in the data set on Staphylococcus aureus [19] was Active. Further, the Activity entry (in data set [6]; in data set [9]; in [16]; in data set [21]; in the data set with L02) was “Non-Toxic” throughout. In the data set on Staphylococcus aureus [12], the inhibition entry is “Dose-Dependent Effect”. The MIC – broadly, the least concentration at which growth counts as inhibited – in the data set on Staphylococcus aureus [14] was 2 µg/mL; in the data set on Micrococcus luteus, 4 µg/mL. Also, the inhibition entry with Staphylococcus aureus [18] was “Active”.
